# According to patent US9271971B2, “Pyrido[3,4-B]indoles and methods of use” (Medivation Technologies, Inc., priority 2009, dated 2016):
# Key:
# [1] = molecular target: human recombinant dopamine D2L receptor (Homo sapiens, UniProt P14416); test: Dopamine D2L radioligand binding assay; conditions: [3H]Spiperone specific binding; for inhibition at 1 µM: read-out: Percent Inhibition of ligand binding, Dopamine (1 μM ligand conc.) D2L
# Procedure: To evaluate in radioligand binding assays the activity of compounds of the invention, human recombinant dopamine D2L receptor expressed in Chinese hamster ovary (CHO) cells [Grandy, D. K. et al. Proc. Natl. Acad. Sci. USA. (1989), 86:9762; Hayes, G. et al., Mol. Endocrinol. (1992), 6:920] in a modified Tris-HCl buffer (50 mM Tris-HCl, pH 7.4, 1.4 mM Ascorbic Acid, 0.001% BSA, 150 mM NaCl) was used. Compounds of the invention were incubated with 0.16 nM [^3H]Spiperone for 120 min. at 25° C. Non-specific binding was estimated in the presence of 10 μM Haloperidol. Receptor proteins were filtered and washed, the filters were then counted to determine [^3H]Spiperone specifically bound. Compounds were screened at 1 μM or lower, using 1% DMSO as vehicle. Biochemical assay results are presented as the percent inhibition of specific binding in Table 3.
# [2] = molecular target: T1, human recombinant adrenergic α1D receptor (Homo sapiens, UniProt P25100); test: Adrenergic α1D radioligand binding assay; conditions: [3H]Prozosin specific binding; for inhibition at 1 µM: read-out: Percent Inhibition of ligand binding, Adrenergic (1 μM ligand conc.) α1D; for inhibition at 0.1 µM: read-out: Percent Inhibition of ligand binding, Adrenergic (0.1 μM ligand conc.) α1D
# T1 construct: expressed in transfected cells; host or cells: human embryonic kidney (HEK-293) cells
# T1 sequence (P25100 1-572): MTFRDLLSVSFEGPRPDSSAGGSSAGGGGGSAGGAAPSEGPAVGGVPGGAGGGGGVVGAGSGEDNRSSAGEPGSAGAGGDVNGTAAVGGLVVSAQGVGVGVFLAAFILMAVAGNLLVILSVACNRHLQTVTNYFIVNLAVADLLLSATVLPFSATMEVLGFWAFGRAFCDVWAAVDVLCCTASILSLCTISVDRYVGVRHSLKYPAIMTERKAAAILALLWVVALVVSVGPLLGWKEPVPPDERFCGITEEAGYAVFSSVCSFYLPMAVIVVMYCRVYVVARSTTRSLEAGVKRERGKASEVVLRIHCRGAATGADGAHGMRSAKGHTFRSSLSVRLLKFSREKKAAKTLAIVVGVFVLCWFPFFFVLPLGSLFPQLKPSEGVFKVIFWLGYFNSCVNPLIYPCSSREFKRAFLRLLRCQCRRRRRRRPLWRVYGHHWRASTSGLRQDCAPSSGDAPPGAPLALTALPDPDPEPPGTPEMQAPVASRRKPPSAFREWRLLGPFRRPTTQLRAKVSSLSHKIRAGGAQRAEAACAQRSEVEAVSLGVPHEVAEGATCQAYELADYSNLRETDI
# Procedure: To evaluate in radioligand binding assays the activity of compounds of the invention, human recombinant adrenergic α1D receptor expressed in human embryonic kidney (HEK-293) cells [Kenny, B. A. et al. Br. J. Pharmacol. (1995), 115(6):981] in a 50 mM Tris-HCl buffer, pH 7.4, was used. Compounds of invention were incubated with 0.6 nM [^3H]Prozosin for 60 min. at 25° C. Non-specific binding was estimated in the presence of 10 μM phentolamine. Receptor proteins were filtered and washed, the filters were then counted to determine [^3H]Prozosin specifically bound. Compounds were screened at 1 μM or lower, using 1% DMSO as vehicle. Compounds of the invention were tested in this biochemical assay. Biochemical assay results for representative compounds were presented as the percent inhibition of specific binding in Table 3.
# [3] = molecular target: T2, human recombinant serotonin (5-Hydroxytryptamine) 5-HT2A receptor (Homo sapiens, UniProt P28223); test: Serotonin 5-HT2A radioligand binding assay; conditions: [3H]Ketanserin specific binding; for inhibition at 1 µM: read-out: Percent Inhibition of ligand binding, Serotonin (1 μM ligand concentration) 5-HT2A
# T2 construct: expressed in transfected cells; host or cells: Chinese hamster ovary (CHO-K1) cells
# T2 sequence (P28223 whole entry): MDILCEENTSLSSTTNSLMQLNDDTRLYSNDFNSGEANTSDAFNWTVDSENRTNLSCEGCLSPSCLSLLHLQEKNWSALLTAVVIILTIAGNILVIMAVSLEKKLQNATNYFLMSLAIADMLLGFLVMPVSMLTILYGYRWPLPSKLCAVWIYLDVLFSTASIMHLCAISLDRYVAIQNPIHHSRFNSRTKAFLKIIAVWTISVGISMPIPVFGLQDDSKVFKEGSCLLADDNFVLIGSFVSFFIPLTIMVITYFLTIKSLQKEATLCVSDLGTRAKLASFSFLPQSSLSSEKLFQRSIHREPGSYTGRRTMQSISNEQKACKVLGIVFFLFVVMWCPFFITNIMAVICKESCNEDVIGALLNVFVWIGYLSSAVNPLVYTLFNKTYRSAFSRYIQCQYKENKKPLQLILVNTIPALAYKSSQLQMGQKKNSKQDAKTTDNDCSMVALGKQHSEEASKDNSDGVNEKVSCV
# Procedure: To evaluate in radioligand binding assays the activity of compounds of the invention, human recombinant serotonin (5-Hydroxytryptamine) 5-HT2A receptor expressed in Chinese hamster ovary (CHO-K1) cells [Bonhaus, D. W. et al., Br. J. Pharmacol. (1995), 115:622; Saucier, C. et al., J. Neurochem. (1997), 68:1998] in a 50 mM Tris-HCl buffer, pH 7.4, was used. Compounds of the invention were incubated with 0.5 nM [^3H]Ketanserin for 60 min. at 25° C. Non-specific binding was estimated in the presence of 1 μM Mianserin. Receptor proteins were filtered and washed, the filters were then counted to determine [^3H]Ketanserin specifically bound. Compounds were screened at 1 μM or lower, using 1% DMSO as vehicle. Biochemical assay results are presented as the percent inhibition of specific binding in Table 4.
# [4] = molecular target: T3, human recombinant adrenergic α2A receptor (Homo sapiens, UniProt P08913); test: Adrenergic α2A radioligand binding assay; conditions: [3H]MK-912 specific binding; for inhibition at 1 µM: read-out: Percent Inhibition of ligand binding, Adrenergic (1 μM ligand conc.) α2A; for inhibition at 0.1 µM: read-out: Percent Inhibition of ligand binding, Adrenergic (0.1 μM ligand conc.) α2A
# T3 construct: expressed in transfected cells; host or cells: insect Sf9 cells
# T3 sequence (P08913 1-465): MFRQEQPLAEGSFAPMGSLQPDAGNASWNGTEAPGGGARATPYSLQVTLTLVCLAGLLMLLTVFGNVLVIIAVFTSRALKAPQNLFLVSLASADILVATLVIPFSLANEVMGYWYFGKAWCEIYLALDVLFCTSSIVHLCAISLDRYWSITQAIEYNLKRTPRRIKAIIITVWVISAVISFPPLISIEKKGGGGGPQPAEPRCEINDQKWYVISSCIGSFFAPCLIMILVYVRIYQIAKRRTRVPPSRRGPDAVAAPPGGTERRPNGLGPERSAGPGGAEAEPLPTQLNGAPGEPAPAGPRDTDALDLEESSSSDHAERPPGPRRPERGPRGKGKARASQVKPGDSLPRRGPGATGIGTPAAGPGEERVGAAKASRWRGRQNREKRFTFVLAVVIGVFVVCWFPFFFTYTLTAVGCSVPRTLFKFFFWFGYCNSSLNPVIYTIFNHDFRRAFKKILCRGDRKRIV
# Procedure: To evaluate in radioligand binding assays the activity of compounds of the invention, human recombinant adrenergic α2A receptor expressed in insect Sf9 cells [Uhlen, S et al. J. Pharmacol. Exp. Ther. (1994), 271:1558] in a modified Tris-HCl buffer (50 mM Tris-HCl, pH 7.4, 12.5 mM MgCl2, 2 mM EDTA) was used. Compounds of invention were incubated with 1 nM [^3H]MK-912 for 60 min. at 25° C. MK912 was (2S-trans)-1,3,4,5′,6,6′,7,12b-octahydro-1′,3′-dimethyl-spiro[2H-benzofuro[2,3-a]quinolizine-2,4′(1′H)-pyrimidin]-2′(3′H)-one hydrochloride Non-specific binding was estimated in the presence of 10 μM WB-4101 (2-(2,6-dimethoxyphenoxyethyl)aminomethyl-1,4-benzodioxane hydrochloride). Receptor proteins were filtered and washed, the filters were then counted to determine [^3H]MK-912 specifically bound. Compounds were screened at 1 μM or lower, using 1% DMSO as vehicle. Compounds of the invention were tested in this biochemical assay. Biochemical assay results for representative compounds were presented as the percent inhibition of specific binding in Table 3.
# human recombinant dopamine D2L receptor, sequence (P14416 whole entry): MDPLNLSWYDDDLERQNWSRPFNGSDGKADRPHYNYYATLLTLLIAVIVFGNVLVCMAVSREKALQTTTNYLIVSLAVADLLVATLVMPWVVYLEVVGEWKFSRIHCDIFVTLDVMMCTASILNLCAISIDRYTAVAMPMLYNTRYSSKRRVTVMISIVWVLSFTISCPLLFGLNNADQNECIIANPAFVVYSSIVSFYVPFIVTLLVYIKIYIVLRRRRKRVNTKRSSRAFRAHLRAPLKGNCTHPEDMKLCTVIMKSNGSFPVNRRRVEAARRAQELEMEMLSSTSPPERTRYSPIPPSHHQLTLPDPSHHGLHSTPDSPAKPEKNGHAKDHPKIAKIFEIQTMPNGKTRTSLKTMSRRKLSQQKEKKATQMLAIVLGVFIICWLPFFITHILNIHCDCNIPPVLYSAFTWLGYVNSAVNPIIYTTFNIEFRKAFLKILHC
compound,measurement,setting,value
Cc1ccc2c(c1)c1c(n2CC(O)c2ccc(F)cc2)CN2CCC1C2 (stereo not drawn) [Compound 31],inhibition at 1 µM,[1],2%
same,inhibition at 1 µM,[2],34%
same,inhibition at 1 µM,[3],58%
same,inhibition at 1 µM,[4]; 1 μM,41%
Cc1ccc2c(c1)c1c(n2CC(=O)NC2CCCCC2)CN2CCC1C2 (stereo not drawn) [Compound 23],inhibition at 1 µM,[1],5%
same,inhibition at 1 µM,[2],18%
same,inhibition at 1 µM,[3],-4%
same,inhibition at 1 µM,[4]; 1 μM,-13%
Cc1ccc2c(c1)c1c(n2CC(C)(O)c2ccc(Cl)c(Cl)c2)CN2CCC1C2 (stereo not drawn) [Compound 13],inhibition at 1 µM,[1],-2%
same,inhibition at 1 µM,[2],14%
same,inhibition at 1 µM,[3],82%
same,inhibition at 1 µM,[4]; 1 μM,39%
C/C(=C\n1c2c(c3cc(C)ccc31)C1CCN(C2)C1)c1ccc(Cl)cc1Cl (stereo not drawn) [Compound 33],"Percent Inhibition of ligand binding, Dopamine (1 μM ligand conc.) D2L",[1],−6%
same,inhibition at 0.1 µM,[2],-6%
same,"Percent Inhibition of ligand binding, Adrenergic (1 μM ligand conc.) α1D",[2],28%
same,inhibition at 1 µM,[3],78%
same,inhibition at 0.1 µM,[4],13%
same,inhibition at 1 µM,[4]; 1 μM,66%
Cc1ccc2c(c1)c1c(n2CCc2cncc(F)c2)CN2CCC1C2 (stereo not drawn) [Compound 9],inhibition at 1 µM,[1],9%
same,inhibition at 1 µM,[2],24%
same,inhibition at 1 µM,[3],-6%
same,inhibition at 1 µM,[4]; 1 μM,2%
C/C(=C\n1c2c(c3cc(C)ccc31)C1CCN(C2)C1)c1ccc(Cl)cc1Cl (stereo not drawn) [Compound 34],"Percent Inhibition of ligand binding, Dopamine (1 μM ligand conc.) D2L",[1],0%
same,"Percent Inhibition of ligand binding, Adrenergic (1 μM ligand conc.) α1D",[2],11%
same,"Percent Inhibition of ligand binding, Serotonin (1 μM ligand concentration) 5-HT2A",[3],94%
same,"Percent Inhibition of ligand binding, Adrenergic (1 μM ligand conc.) α2A",[4]; 1 μM,48%
Cc1ccc(C(O)Cn2c3c(c4cc(C)ccc42)C2CCN(C3)C2)cc1 (stereo not drawn) [Compound 5],inhibition at 1 µM,[1],6%
same,inhibition at 1 µM,[2],34%
same,inhibition at 1 µM,[3],81%
same,inhibition at 1 µM,[4]; 1 μM,44%
COc1ccc(C(O)Cn2c3c(c4cc(C)ccc42)C2CCN(C3)C2)cc1F (stereo not drawn) [Compound 6],inhibition at 1 µM,[1],-1%
same,inhibition at 1 µM,[2],28%
same,inhibition at 1 µM,[3],45%
same,inhibition at 1 µM,[4]; 1 μM,23%
Cc1ccc2c(c1)c1c(n2CC(C)(O)c2ccc(F)c(Cl)c2)CN2CCC1C2 (stereo not drawn) [Compound 18],inhibition at 1 µM,[1],-1%
same,inhibition at 1 µM,[2],1%
same,inhibition at 1 µM,[3],81%
same,inhibition at 1 µM,[4]; 1 μM,30%
Cc1ccc2c(c1)c1c(n2CC(=O)c2ccc(Cl)cc2)CN2CCC1C2 (stereo not drawn) [Compound 29],inhibition at 1 µM,[1],0%
same,inhibition at 1 µM,[2],42%
same,inhibition at 1 µM,[3],56%
same,inhibition at 1 µM,[4]; 1 μM,89%
C/C(=C\n1c2c(c3cc(C)ccc31)C1CCN(C2)C1)c1ccc(F)c(F)c1 (stereo not drawn) [Compound 39],inhibition at 1 µM,[1],0%
same,inhibition at 1 µM,[3],94%
Cc1ccc2c(c1)c1c(n2CC(C)(O)c2ccc(F)cc2)CN2CCC1C2 (stereo not drawn) [Compound 2],inhibition at 1 µM,[1],7%
same,inhibition at 1 µM,[2],15%
same,inhibition at 1 µM,[3],76%
same,inhibition at 1 µM,[4]; 1 μM,54%
Cc1ccc2c(c1)c1c(n2CCc2ccncc2)CN2CCC1C2 (stereo not drawn) [Compound 30],inhibition at 1 µM,[1],10%
same,inhibition at 1 µM,[2],40%
same,inhibition at 1 µM,[3],71%
same,inhibition at 1 µM,[4]; 1 μM,84%
Cc1ccc2c(c1)c1c(n2C#Cc2ccc(Cl)cc2)CN2CCC1C2 (stereo not drawn) [Compound 35],inhibition at 1 µM,[1],-6%
same,inhibition at 1 µM,[3],87%
Cc1ccc(/C=C/n2c3c(c4cc(C)ccc42)C2CCN(C3)C2)cc1 (stereo not drawn) [Compound 10],inhibition at 1 µM,[1],18%
same,inhibition at 1 µM,[2],73%
same,inhibition at 1 µM,[3],20%
same,inhibition at 1 µM,[4]; 1 μM,38%
Cc1ccc2c(c1)c1c(n2C(=O)Cc2ccc(F)cc2)CN2CCC1C2 (stereo not drawn) [Compound 43],inhibition at 1 µM,[1],11%
same,inhibition at 1 µM,[3],48%
COc1ccc(/C(C)=C/n2c3c(c4cc(C)ccc42)C2CCN(C3)C2)cc1 (stereo not drawn) [Compound 45],inhibition at 1 µM,[1],-2%
same,inhibition at 0.1 µM,[2],-1%
same,inhibition at 1 µM,[3],98%
same,inhibition at 0.1 µM,[4],4%
Cc1ccc(C(C)(O)Cn2c3c(c4cc(C)ccc42)C2CCN(C3)C2)cc1 (stereo not drawn) [Compound 20],inhibition at 1 µM,[1],9%
same,inhibition at 1 µM,[2],29%
same,inhibition at 1 µM,[3],102%
same,inhibition at 1 µM,[4]; 1 μM,28%
Cc1ccc2c(c1)c1c(n2CC(C)(O)c2ccc(Cl)cc2Cl)CN2CCC1C2 (stereo not drawn) [Compound 14],inhibition at 1 µM,[1],11%
same,inhibition at 1 µM,[2],-5%
same,inhibition at 1 µM,[3],61%
same,inhibition at 1 µM,[4]; 1 μM,18%
Cc1ccc2c(c1)c1c(n2CC(C)(O)c2ccc(F)cc2F)CN2CCC1C2 (stereo not drawn) [Compound 17],inhibition at 1 µM,[1],5%
same,inhibition at 1 µM,[2],19%
same,inhibition at 1 µM,[3],81%
same,inhibition at 1 µM,[4]; 1 μM,4%
COc1ccc(/C(C)=C/n2c3c(c4cc(C)ccc42)C2CCN(C3)C2)cc1F (stereo not drawn) [Compound 41],inhibition at 1 µM,[1],17%
same,inhibition at 1 µM,[3],92%
C/C(=C\n1c2c(c3cc(C)ccc31)C1CCN(C2)C1)c1cccnc1 (stereo not drawn) [Compound 42],inhibition at 1 µM,[1],-10%
same,inhibition at 1 µM,[3],47%
C/C(=C/n1c2c(c3cc(C)ccc31)C1CCN(C2)C1)c1ccccc1F (stereo not drawn) [Compound 37],inhibition at 1 µM,[1],5%
same,inhibition at 1 µM,[3],96%
C/C(=C\n1c2c(c3cc(C)ccc31)C1CCN(C2)C1)c1ccc(Cl)c(Cl)c1 (stereo not drawn) [Compound 40],inhibition at 1 µM,[1],6%
same,inhibition at 1 µM,[3],94%
